Reference: patent publication US20220267380A1, “Glycopeptides Increasing Lipid Synthesis” (TFCHEM, priority 2019, published 2022)

Test system: normal human dermal fibroblasts (NHDF)
Test: Microscopic observations of human dermal fibroblasts in culture (formation of lipid vesicles)
Format: cell-based
Conditions: 48 h, vs untreated cells
Method: Normal human dermal fibroblasts (NHDF) were grown with Dulbecco's Modified Eagle
Medium (DMEM) supplemented with Fetal Calf Serum (FCS) 10%, antibiotics (Penicillin 50 U/ml—Streptomycin 50 μg/ml) and L-Glutamine 2 mM final. Cells were grown in 37° C. and 5% CO2 incubator.
Fibroblasts were seeded in 24-well plates and cultured in culture medium for 24 hours. The medium was then replaced by assay medium and cells were incubated for further 24 hours. For the assay, the medium was replaced by assay medium containing or not (control) the test compound at different concentrations. After 48 h the morphological observations were evaluated.

Row | SMILES | morphological observation of fibroblasts (10 mg/ml) | morphological observation of fibroblasts (20 mg/ml) | morphological observation of fibroblasts (13 mg/ml)
1 | C[C@H](NC(=O)[C@H](C)NC(=O)[C@@H](N)CCCCNCC(F)(F)[C@]1(O)O[C@H](CO)[C@H](O)[C@H](O)[C@H]1O)C(=O)O [Compound 1] | no effect | induced the formation of lipid vesicles in fibroblasts | 
2 | CC(=O)N(CCCC[C@H](N)C(=O)O)CC(F)(F)[C@]1(O)O[C@H](CO)[C@H](O)[C@H](O)[C@H]1O [Compound 4] |  |  | induces the formation of lipid vesicles in fibroblasts and cell swelling
